Measurements as given in patent US20250163006A1, “New Coolants, and Preparations Containing Same” (Symrise AG, priority 2022, published 2025).
Where two headings read alike, the source gives them in different places.

Tests used:
[1] = Sensory tasting of cooling intensity by trained panelists, WS-3 as reference; type: in vivo, human; settings: 5 ppm in 5% sugar solution, rated after one minute, scale 1 (very weak) to 9 (very strong); for Sensory evaluation: cooling intensity; for cooling intensity (sensory evaluation, score): tasted 40 seconds, n=10 to 11
Method: In order to quantify the cooling effect, comparative tests are carried out using menthane-3-carboxylic acid-N-ethylamide as a reference. For these comparative tests, the skilled person replaces the compound or compounds to be used according to the invention with menthane-3-carboxylic acid-N-ethylamide (also referred to as WS-3). Then the intensities of the cooling effects of the respective compounds or active ingredients are sensory evaluated by trained panelists (n=10 to 11) as described below and compared with each other.
The cooling intensity was tested as follows: Test solutions with 5 ppm of the compounds according to the invention were each tasted in a 5% sugar solution as well as a corresponding solution with 30 ppm of the reference substance WS-3. […] The panelists tasted the corresponding test solutions for exactly 40 seconds, rinsing the entire mouth with the corresponding test solution and then spitting out the sample or reference solution. Following the tasting, the test subjects rated the respective cooling intensity after one minute according to a scale of 1 (very weak) to 9 (very strong).

[2] = molecular target: T1, human TRPM8 receptor (Homo sapiens, UniProt Q7Z2W7); assay: Assay on TRPM8 modulators: Ca2+-sensitive dye (Fluo-4) fluorescence in HEK293-TRPM8 test cells; type: cell-based; set-up: relative TRPM8 activation: concentration or dose not given beside the values; settings: for EC50: HEK293-TRPM8 cells; for relative TRPM8 activation: HEK293 cells recombinantly expressing human TRPM8
T1 construct: expressed in transfected cells; host or cells: HEK293, stably transfected, tetracycline-inducible expression
T1 sequence (Q7Z2W7 whole entry): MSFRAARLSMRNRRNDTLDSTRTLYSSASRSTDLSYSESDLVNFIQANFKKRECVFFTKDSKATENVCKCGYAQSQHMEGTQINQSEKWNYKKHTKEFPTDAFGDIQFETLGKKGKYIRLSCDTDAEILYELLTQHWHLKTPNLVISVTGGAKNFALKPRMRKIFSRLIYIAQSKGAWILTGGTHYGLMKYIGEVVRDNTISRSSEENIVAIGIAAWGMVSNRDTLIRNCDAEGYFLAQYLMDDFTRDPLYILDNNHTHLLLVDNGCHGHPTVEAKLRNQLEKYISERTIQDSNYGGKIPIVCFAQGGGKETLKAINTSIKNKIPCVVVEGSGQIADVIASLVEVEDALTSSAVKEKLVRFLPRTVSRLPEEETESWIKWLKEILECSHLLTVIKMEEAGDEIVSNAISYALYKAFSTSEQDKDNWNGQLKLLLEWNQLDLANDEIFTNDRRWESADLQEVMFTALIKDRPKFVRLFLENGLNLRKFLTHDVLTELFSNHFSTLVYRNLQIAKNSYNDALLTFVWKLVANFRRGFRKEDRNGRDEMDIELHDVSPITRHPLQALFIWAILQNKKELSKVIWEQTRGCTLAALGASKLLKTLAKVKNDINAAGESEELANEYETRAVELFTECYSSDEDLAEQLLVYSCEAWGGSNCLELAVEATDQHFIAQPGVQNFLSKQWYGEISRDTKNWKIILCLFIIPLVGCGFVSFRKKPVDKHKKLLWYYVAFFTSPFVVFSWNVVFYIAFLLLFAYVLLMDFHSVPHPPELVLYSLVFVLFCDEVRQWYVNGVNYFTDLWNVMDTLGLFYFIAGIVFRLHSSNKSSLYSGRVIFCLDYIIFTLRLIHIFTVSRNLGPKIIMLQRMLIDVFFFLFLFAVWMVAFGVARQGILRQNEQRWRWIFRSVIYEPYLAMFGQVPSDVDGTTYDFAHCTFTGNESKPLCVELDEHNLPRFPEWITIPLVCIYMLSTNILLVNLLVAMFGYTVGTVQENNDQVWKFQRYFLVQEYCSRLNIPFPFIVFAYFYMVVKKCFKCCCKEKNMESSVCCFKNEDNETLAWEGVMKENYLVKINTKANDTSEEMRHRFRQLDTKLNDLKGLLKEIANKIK
Summary of the method: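 HEK293 cells stably carrying tetracycline-inducible human TRPM8 (1 µg/ml tetracycline), loaded next day with Fluo-4 (30 min 37 °C, 30 min RT). Compounds tested in triplicate at 0.1–200 µM (≤2% DMSO) and fluorescence read at 485/520 nm. EC50 from 4- or 5-parameter logistic fits of 6–10 concentrations.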

[3] = TRPM8 activation, 6 to 10 concentrations, logistic curve fitting, read-out: EC50 value

| relative TRPM8 activation [2] [%] | EC50 ([2]; Table 6, read-out: TRPM8 EC50) [nM] | EC50 ([2]; Table 8, read-out: TRPM8 EC50) [nM] | SMILES | Sensory evaluation ([1]; Table 5) | Sensory evaluation ([1]; Table 9) | Sensory evaluation ([1]; Table 6) | Sensory evaluation ([1]; Table 10) | cooling intensity (sensory evaluation, score) [1] | also measured |
| --- | --- | --- | --- | --- | --- | --- | --- | --- | --- |
|  |  |  | O=C(CSc1nnc(-c2ccccc2)c(-c2ccccc2)n1)N1CCC1 [Compound B-06, 1-(azetidin-1-yl)-2-[(5,6-diphenyl-1,2,4-triazin-3-yl)sulfanyl]ethanone] | 3.0 | 3.0 |  |  |  | EC50 [2, 3]: ≤ 1000 nM; EC50 ([2]; Table 5, read-out: TRPM8 EC50): 280 nM; EC50 ([2]; Table 7, read-out: TRPM8 EC50): 280 nM |
| 80 |  |  | O=C(CCc1nc(-c2ccccc2)c(-c2ccccc2)o1)NC1CC1 [Compound A-18, N-cyclopropyl-3-(4,5-diphenyloxazol-2-yl)propanamide] |  |  | 0.71 |  |  |  |
|  | 4270 | 4270 | CNC(=O)CCc1nc(-c2ccccc2)c(-c2ccccc2)o1 [Compound A-16, 3-(4,5-diphenyloxazol-2-yl)-N-methyl-propanamide] |  |  | 2.3 | 2.3 |  |  |
|  |  |  | CC(Sc1nnc(-c2ccccc2)c(-c2ccccc2)n1)C(=O)NC1CC1 (centres unmarked) [Compound B-01, N-Cyclopropyl-2-[(5,6-diphenyl-1,2,4-triazin-3-yl)sulfanyl] propanamide] | 4.2 | 4.2 |  |  | 4.2 | EC50 [2, 3]: ≤ 1000 nM; EC50 ([2]; Table 5, read-out: TRPM8 EC50): 50 nM; EC50 ([2]; Table 7, read-out: TRPM8 EC50): 50 nM |
|  |  |  | CNC(=O)C(C)Sc1cnc(-c2ccccc2)c(-c2ccccc2)n1 (centres unmarked) [Compound B-02, 2-(5,6-diphenylpyrazin-2-yl)sulfanyl-N-methyl-propanamide] | 4.1 | 4.1 |  |  | 4.1 | EC50 [2, 3]: ≤ 1000 nM; EC50 ([2]; Table 5, read-out: TRPM8 EC50): 80 nM; EC50 ([2]; Table 7, read-out: TRPM8 EC50): 80 nM |
|  | 1540 | 1540 | CCC(Sc1nc(-c2ccccc2)c(-c2ccccc2)o1)C(=O)NC (centres unmarked) [Compound A-09, 2-(4,5-diphenyloxazol-2-yl)sulfanyl-N-methyl-butanamide] |  |  | 4.66 | 4.66 | 4.66 |  |
|  |  |  | CNC(=O)C(C)Sc1nnc(-c2ccccc2)c(-c2ccccc2)n1 (centres unmarked) [Compound B-11, 2-[(5,6-diphenyl-1,2,4-triazin-3-yl)sulfanyl]-N-methyl-propanamide] | 5.3 | 5.3 |  |  | 5.3 | EC50 ([2]; Table 5, read-out: TRPM8 EC50): 1430 nM; EC50 ([2]; Table 7, read-out: TRPM8 EC50): 1430 nM |
| 69 |  |  | O=C(CCc1nc(-c2ccccc2)c(-c2ccccc2)o1)NC1CC1 [Compound A-22, N-cyclopropyl-3-(4,5-diphenyloxazol-2-yl)propanamide] |  |  | 0.8 |  |  |  |
| 1 |  |  | CCSc1nc(-c2ccccc2)c(-c2ccccc2)o1 [Compound A-55, 2-ethylsulfanyl-4,5-diphenyl-oxazole] |  |  | 0.59 |  |  |  |
| 73 |  |  | CC(Sc1nc(-c2ccccc2)c(-c2ccccc2)o1)C(N)=O (centres unmarked) [Compound A-20, 2-(4,5-diphenyloxazol-2-yl)sulfanyl-propanamide] |  |  | 0.81 |  |  |  |
|  | 150 | 150 | CCNC(=O)CCc1nc(-c2ccccc2)c(-c2ccccc2)o1 [Compound A-07, 3-(4,5-diphenyloxazol-2-yl)-N-ethyl-propanamide] |  |  | 2.67 | 2.67 |  | EC50 [2, 3]: ≤ 1000 nM |
|  | 600 | 600 | CNC(=O)[C@H]1C[C@H]1c1nc(-c2ccccc2)c(-c2ccccc2)o1 (racemic) [Compound A-04, rac-(1S,2R)-2-(4,5-diphenyloxazol-2-yl)-N-methyl-cyclopropane-carboxamides] |  |  | 0.5 | 0.5 |  | EC50 [2, 3]: ≤ 1000 nM |
| 5 |  |  | CNC(=O)[C@H]1C[C@@H]1c1nc(-c2ccccc2)c(-c2ccccc2)o1 (racemic) [Compound A-39, rac-(1S,2S)-2-(4,5-diphenyloxazol-2-yl)-N-methyl-cyclopropane-carboxamides] |  |  | 0.7 |  |  |  |
|  | 2130 | 2130 | CC(Sc1nc(-c2ccccc2)c(-c2ccccc2)o1)C(=O)NC1CC1 (centres unmarked) [Compound A-10, N-cyclopropyl-2-(4,5-diphenyloxazol-2-yl) sulfanyl-propanamide] |  |  | 5.38 | 5.38 | 5.38 |  |
|  |  |  | O=C(CSc1nnc(-c2ccccc2)c(-c2ccccc2)n1)NC1CC1 [Compound B-19, N-cyclopropyl-2-[(5,6-diphenyl-1,2,4-triazin-3-yl)sulfanyl]acetamide] | 1.9 | 1.9 |  |  |  |  |
|  | 5090 | 5090 | CCCNC(=O)C(C)Sc1nc(-c2ccccc2)c(-c2ccccc2)o1 (centres unmarked) [Compound A-12, 2-(4,5-diphenyloxazol-2-yl)sulfanyl-N-propyl-propanamide] |  |  | 1.26 | 1.26 |  |  |
|  |  |  | CNC(=O)C(C)Sc1nnc2c3ccccc3c3ccccc3c2n1 (centres unmarked) [Compound B-07, N-methyl-2-phenanthro[9,10-e][1,2,4]triazine-3-ylsulfanyl-propanamide] | 0.75 | 0.75 |  |  |  | EC50 ([2]; EC50 value, TRPM8 activation, 6 to 10 concentrations, logistic curve fitting): ≤ 1000 nM; EC50 ([2]; TRPM8 EC50, Table 5): 920 nM; EC50 ([2]; TRPM8 EC50, Table 7): 920 nM |
|  | 2310 | 2310 | CNC(=O)C(C)Sc1nc(C)c(-c2ccccc2)o1 (centres unmarked) [Compound A-05, N-methyl-2-(4-methyl-5-phenyl-oxazol-2-yl)sulfanyl-propanamide] |  |  | 1.1 | 1.1 |  |  |
|  | 10 | 10 | CNC(=O)C(C)Sc1nc(-c2ccccc2)c(-c2ccccc2)o1 (centres unmarked) [Compound A-02, 2-(4,5-diphenyloxazol-2-yl)sulfanyl-N-methyl-propanamide] |  |  | 5.4 | 5.4 | 5.4 |  |
| −1 |  |  | O=C(CSc1ncco1)NC1CC1 [Compound A-66, N-cyclopropyl-2-oxazol-2-ylsulfanyl-acetamide] |  |  |  |  |  |  |
